Measurements as given in patent publication US20250255808A1, “NANOGEL PLATFORM TECHNOLOGY FOR LONG-TERM BIOLOGICS THERAPY” (UNIVERSITY OF MARYLAND, BALTIMORE, priority 2022, published 2025).

Tests used:
[1] = Structural integrity of released Avastin (far-UV and fluorescence emission scans); format: physicochemical; settings: after release from the nanogels, versus native and denatured controls
Procedure: Nanogels containing 0, 2 or 5 mol % acrylic acid (AA) loaded with 12.5 or 37.5 wt % Avastin were dispersed in 1 mL PBS (pH 7.4) inside a release device (Float-A-Lyzer® G2, Spectrum Laboratories Inc.) with MWCO 300 kDa at 20 mg/mL. The release device was immersed in 20 mL PBS (pH 7.4) in a 50 mL conical centrifuge tube, and the release was carried out in an incubator shaker at 70 rpm and 37° C. for 100 days. At selected times, the release device was transferred to a new PBS (pH 7.4) release media maintained at 37° C. The amount of Avastin released at each time point was measured using a BCA total protein assay kit (n=4). The fluorescence spectra of released Avastin at late time points were compared to native Avastin® to evaluate the structural integrity of the therapeutic antibody during release.

[2] = tested on: VEGF expression of hfRPE cells; experiment: VEGF ELISA on hfRPE cells with and without UV treatment; format: cell-based, human; settings: Avastin 0.25 mg/mL, nanogels 2 mg/mL, 24 hours
Procedure: To test the ability of Avastin®-loaded nanogels to affect VEGF expression, HfRPE cells were seeded in 96-well plates at a density of 100,000 cells/cm^2. After one day incubation, cell media for all groups was changed to PBS (pH 7.4). Half of all cells were exposed to UV light (1 J/cm) for one hour, and the other half were placed back into the cell incubator. After the 1-hour exposure, PBS (pH 7.4) for all wells were replaced with serum free media (DMEM+pen/strep), then Avastin® at concentration 0.25 mg/mL, and nanogels containing 2 mol % AA with and without 12.5 wt % Avastin® were added into the wells at a concentration of 2 mg/mL. Cells with and without UV treatment were used as controls.
After 24 hours, a VEGF ELISA assay was conducted on all experimental groups.

Bevacizumab [Avastin]
secondary and tertiary protein structures [1]: intact
VEGF expression of hfRPE ([2]; UV-treated cells): reduces the VEGF expression to the level of the cells without UV treatment
VEGF expression of hfRPE ([2]; cells without UV treatment): do not change VEGF expression
